One test deals with A. baumannii. Kind of test: Gram negative MIC protocol (OD600, LB, 24 h). The settings on record: Acinetobacter baumannii, read-out: MIC A. baumannii LB Media, A. baumannii, LB media, 24 h, OD600.
The next test deals with H37RvMA. The test is described as follows: Tuberculosis Alamar Blue/Resazurin assay (MIC). Conditions: Mycobacterium tuberculosis, H37RV, WT H37Rv MTB; read-out: WT H37Rv MTB Activity. It is filed as cell-based. (In general: Alamar Blue is a resazurin reagent that responds to reducing activity.)
For a further test, the system named is E. coli. The test is described as follows: Gram negative MIC protocol (OD600, LB, 24 h). Conditions: Escherichia coli.
Where [1] appears, read: read-out: MIC E. coli delta-TolC LB Media, E. coli delta-TolC strain, LB media, 24 h, OD600.
Where [2] appears, read: read-out: MIC WT E. coli LB Media, wild-type E. coli, LB media, 24 h, OD600.

Molecules are shown by their SMILES. Converted amounts (≈) assume the structure as drawn. Like-named read-outs stand apart in the source and are kept apart here.

Procedure for A. baumannii: (§1) Overnight bacterial cultures were grown in LB with no added antibiotics at 37° C. with shaking. A 1:1000 dilution of these cultures into LB was exposed to concentration gradients of compounds in 96-well plates (100 μL per well assay volume). Resulting plates were incubated at 37° C. for 24 h without shaking, and OD600 was measured at the end of the incubation. MICs were determined as the lowest concentrations at which OD600 remained at baseline.
Procedure for E. coli: as §1

Turning to `COc1cccc(OCCOc2ccccc2CNC(C)CC2CCCCC2)c1` (centres unmarked) [B266], the MIC is 33 µM (≈ 13.1 µg/mL) in the test on A. baumannii, 55 µM (≈ 21.9 µg/mL) in the test on H37RvMA, 2 µM (≈ 0.795 µg/mL) with E. coli (setting [1]) and 150 µM (≈ 59.6 µg/mL) in the test with E. coli (setting [2]).
In the case of `COC(=O)c1ccoc1COc1ccccc1CNC(C)CC1CCCCC1` (centres unmarked) [B267], the MIC in the test with A. baumannii was more than 150 µM; in the test with H37RvMA, 91 µM (≈ 35.1 µg/mL); in the test on E. coli (setting [1]), 7 µM (≈ 2.7 µg/mL); in the test on E. coli (setting [2]) it was more than 150 µM.
Consider `CCc1cnc(COc2ccccc2CNC(C)CC2CCCCC2)o1` (centres unmarked) [B268], for which the MIC in the test with A. baumannii is more than 150 µM; in the test with H37RvMA, 91 µM (≈ 32.4 µg/mL); in the test on E. coli (setting [1]), 7 µM (≈ 2.5 µg/mL); in the test on E. coli (setting [2]), more than 150 µM.
On to `CC(CC1CCCCC1)NCc1ccccc1OCC1(CO)COC1` (centres unmarked) [B269], for which the MIC with A. baumannii was 55 µM (≈ 19.1 µg/mL); with H37RvMA, more than 150 µM; in the test with E. coli (setting [1]) it was 7 µM (≈ 2.43 µg/mL); in the test on E. coli (setting [2]), more than 150 µM.
In the case of `CC(CC1CCCCC1)NCc1ccccc1OCC(=O)NC(C)C(=O)N(C)C` (centres unmarked) [B270], the MIC in the test with A. baumannii is more than 150 µM; with H37RvMA it was more than 150 µM; with E. coli (setting [1]) it was 20 µM (≈ 8.07 µg/mL); in the test with E. coli (setting [2]), more than 150 µM.
As to `COc1ccc(OCCCOc2ccccc2CNC(C)CC2CCCCC2)cc1` (centres unmarked) [B271], the MIC in the test with A. baumannii stood at 55 µM (≈ 22.6 µg/mL); in the test on H37RvMA, 55 µM (≈ 22.6 µg/mL); with E. coli (setting [1]) it was 3 µM (≈ 1.23 µg/mL); with E. coli (setting [2]), 150 µM (≈ 61.7 µg/mL).
As for `COC(=O)c1cc(COc2ccccc2CNC(C)CC2CCCCC2)oc1C` (centres unmarked) [B272], the MIC with A. baumannii is more than 150 µM; with H37RvMA, 150 µM (≈ 59.9 µg/mL); with E. coli (setting [1]), 12 µM (≈ 4.79 µg/mL); in the test on E. coli (setting [2]), more than 150 µM.
`CC1CCCN(C(=O)COc2ccccc2CNC(C)CC2CCCCC2)C1` (centres unmarked) [B273]: the MIC in the test with A. baumannii was more than 150 µM; in the test with H37RvMA, 150 µM (≈ 58 µg/mL); in the test on E. coli (setting [1]) it was 4 µM (≈ 1.55 µg/mL); in the test with E. coli (setting [2]), more than 150 µM.
As to `CC(CC1CCCCC1)NCc1ccccc1OCCOCCO` (centres unmarked) [B274], the MIC was 150 µM (≈ 50.3 µg/mL) with A. baumannii, more than 150 µM in the test with H37RvMA, 7 µM (≈ 2.35 µg/mL) in the test with E. coli (setting [1]) and 150 µM (≈ 50.3 µg/mL) with E. coli (setting [2]).
For the compound `CC(CC1CCCCC1)NCc1ccccc1OCCC(C)(C)O` (centres unmarked) [B275], the MIC was 91 µM (≈ 30.3 µg/mL) in the test with A. baumannii, more than 150 µM with H37RvMA, 4 µM (≈ 1.33 µg/mL) in the test on E. coli (setting [1]) and 150 µM (≈ 50 µg/mL) in the test on E. coli (setting [2]).
On the same counts, the results for `COC(=O)CCCOc1ccccc1CNC(C)CC1CCCCC1` (centres unmarked) [B276] are more than 150 µM, more than 150 µM, 4 µM (≈ 1.39 µg/mL) and more than 150 µM.
The matching figures for `COCCCCOc1ccccc1CNC(C)CC1CCCCC1` (centres unmarked) [B277]: more than 150 µM, more than 150 µM, 4 µM (≈ 1.33 µg/mL) and more than 150 µM.
In the case of `Cc1noc(COc2ccccc2CNC(C)CC2CCCCC2)n1` (centres unmarked) [B278], the MIC was more than 150 µM in the test on A. baumannii, more than 150 µM with H37RvMA, 12 µM (≈ 4.12 µg/mL) in the test on E. coli (setting [1]) and more than 150 µM in the test on E. coli (setting [2]).
`Cc1nnc(COc2ccccc2CNC(C)CC2CCCCC2)o1` (centres unmarked) [B279]: the MIC in the test on A. baumannii was more than 150 µM; with H37RvMA, more than 150 µM; in the test with E. coli (setting [1]) it was 12 µM (≈ 4.12 µg/mL); with E. coli (setting [2]), more than 150 µM.
With `CC(CC1CCCCC1)NCc1ccccc1OCC(=O)NC1CC1` (centres unmarked) [B280], the MIC was 150 µM (≈ 51.7 µg/mL) with A. baumannii, more than 150 µM with H37RvMA, 12 µM (≈ 4.13 µg/mL) with E. coli (setting [1]) and 150 µM (≈ 51.7 µg/mL) in the test with E. coli (setting [2]).
For the compound `CC(CC1CCCCC1)NCc1ccccc1OCC1CCOCC1` (centres unmarked) [B281], the MIC in the test on A. baumannii is 91 µM (≈ 31.4 µg/mL); with H37RvMA, 91 µM (≈ 31.4 µg/mL); in the test on E. coli (setting [1]) it was 4 µM (≈ 1.38 µg/mL); in the test with E. coli (setting [2]), more than 150 µM.
In the case of `Cc1cc(COc2ccccc2CNC(C)CC2CCCCC2)no1` (centres unmarked) [B282], the MIC is more than 150 µM in the test on A. baumannii, 150 µM (≈ 51.4 µg/mL) with H37RvMA, 3 µM (≈ 1.03 µg/mL) in the test on E. coli (setting [1]) and more than 150 µM in the test on E. coli (setting [2]).
Take `CC(CC1CCCCC1)NCc1ccccc1OCc1ccncc1` (centres unmarked) [B283]: the MIC in the test on A. baumannii is 91 µM (≈ 30.8 µg/mL); in the test with H37RvMA, 150 µM (≈ 50.8 µg/mL); with E. coli (setting [1]) it was 7 µM (≈ 2.37 µg/mL); in the test on E. coli (setting [2]), 91 µM (≈ 30.8 µg/mL).
Turning to `CC(CC1CCCCC1)NCc1ccccc1OCC(=O)NCC1CC1` (centres unmarked) [B284], the MIC is more than 150 µM in the test with A. baumannii, more than 150 µM in the test with H37RvMA, 7 µM (≈ 2.51 µg/mL) with E. coli (setting [1]) and more than 150 µM in the test on E. coli (setting [2]).
On to `CC(CC1CCCCC1)NCc1ccccc1OCCC(N)=O` (centres unmarked) [B285], for which the MIC in the test with A. baumannii was more than 150 µM; with H37RvMA, more than 150 µM; in the test with E. coli (setting [1]) it was 55 µM (≈ 17.5 µg/mL); in the test with E. coli (setting [2]), 91 µM (≈ 29 µg/mL).
With `CC(CC1CCCCC1)NCc1ccccc1OCc1ccccc1F` (centres unmarked) [B286], the MIC in the test with A. baumannii turned out to be 91 µM (≈ 32.4 µg/mL); in the test on H37RvMA, 33 µM (≈ 11.7 µg/mL); in the test with E. coli (setting [1]), 3 µM (≈ 1.07 µg/mL); in the test with E. coli (setting [2]), 91 µM (≈ 32.4 µg/mL).
Regarding `CC(CC1CCCCC1)NCc1ccccc1OCC1CC1` (centres unmarked) [B287], the MIC turned out to be 91 µM (≈ 27.4 µg/mL) in the test on A. baumannii, 150 µM (≈ 45.2 µg/mL) in the test on H37RvMA, 3 µM (≈ 0.904 µg/mL) in the test with E. coli (setting [1]) and 150 µM (≈ 45.2 µg/mL) in the test on E. coli (setting [2]).
`CC(CC1CCCCC1)NCc1ccccc1OC1CCCC1` (centres unmarked) [B288]: the MIC is 150 µM (≈ 47.3 µg/mL) in the test on A. baumannii, 91 µM (≈ 28.7 µg/mL) in the test on H37RvMA, 3 µM (≈ 0.947 µg/mL) with E. coli (setting [1]) and more than 150 µM in the test on E. coli (setting [2]).
Consider `C=CCOc1ccccc1CNC(C)CC1CCCCC1` (centres unmarked) [B289], for which the MIC with A. baumannii came out at 150 µM (≈ 43.1 µg/mL); with H37RvMA, 150 µM (≈ 43.1 µg/mL); with E. coli (setting [1]), 3 µM (≈ 0.862 µg/mL); in the test on E. coli (setting [2]), 91 µM (≈ 26.2 µg/mL).
As to `CC(CC1CCCCC1)NCc1ccccc1OCC(=O)N1CCCC1` (centres unmarked) [B290], the MIC in the test with A. baumannii is more than 150 µM; in the test with H37RvMA, more than 150 µM; in the test with E. coli (setting [1]) it was 33 µM (≈ 11.8 µg/mL); in the test with E. coli (setting [2]), more than 150 µM.
In the case of `CC(CC1CCCCC1)NCc1ccccc1OC(F)F` (centres unmarked) [B291], the MIC in the test with A. baumannii was more than 150 µM; with H37RvMA it was more than 150 µM; with E. coli (setting [1]), 12 µM (≈ 3.57 µg/mL); with E. coli (setting [2]), 91 µM (≈ 27.1 µg/mL).
In the case of `CC(CC1CCCCC1)NCc1ccccc1OCc1cscn1` (centres unmarked) [B292], the MIC in the test with A. baumannii is more than 150 µM; with H37RvMA, 150 µM (≈ 51.7 µg/mL); in the test on E. coli (setting [1]) it was 4 µM (≈ 1.38 µg/mL); in the test on E. coli (setting [2]) it was more than 150 µM.
As for `CCOc1ccccc1CNC(C)CC1CCCCC1` (centres unmarked) [B293], the MIC with A. baumannii was more than 150 µM; with H37RvMA, more than 150 µM; in the test with E. coli (setting [1]), 4 µM (≈ 1.1 µg/mL); with E. coli (setting [2]), 150 µM (≈ 41.3 µg/mL).
As to `COCCOc1ccccc1CNC(C)CC1CCCCC1` (centres unmarked) [B294], the MIC with A. baumannii was more than 150 µM; in the test with H37RvMA it was more than 150 µM; in the test on E. coli (setting [1]), 7 µM (≈ 2.14 µg/mL); in the test with E. coli (setting [2]) it was more than 150 µM.
On to `CC(CC1CCCCC1)NCc1ccccc1OCc1ccccn1` (centres unmarked) [B295], for which the MIC in the test on A. baumannii is more than 150 µM; with H37RvMA, 150 µM (≈ 50.8 µg/mL); in the test with E. coli (setting [1]), 4 µM (≈ 1.35 µg/mL); with E. coli (setting [2]) it was more than 150 µM.
Consider `CC(CC1CCCCC1)NCc1ccccc1OCc1cccnc1` (centres unmarked) [B296], for which the MIC with A. baumannii was more than 150 µM; with H37RvMA it was more than 150 µM; in the test with E. coli (setting [1]), 7 µM (≈ 2.37 µg/mL); with E. coli (setting [2]), 91 µM (≈ 30.8 µg/mL).
On to `CC(CC1CCCCC1)NCc1ccccc1OCC1CCCO1` (centres unmarked) [B297], for which the MIC in the test with A. baumannii was 150 µM (≈ 49.7 µg/mL); with H37RvMA, more than 150 µM; with E. coli (setting [1]), 7 µM (≈ 2.32 µg/mL); with E. coli (setting [2]), more than 150 µM.
Take `CCOC(COc1ccccc1CNC(C)CC1CCCCC1)OCC` (centres unmarked) [B298]: the MIC in the test on A. baumannii was more than 150 µM; with H37RvMA it was more than 150 µM; with E. coli (setting [1]), 12 µM (≈ 4.36 µg/mL); in the test on E. coli (setting [2]) it was more than 150 µM.
Regarding `CC(CC1CCCCC1)NCc1ccccc1OCCCS(C)(=O)=O` (centres unmarked) [B299], the MIC in the test with A. baumannii is 150 µM (≈ 55.1 µg/mL); in the test with H37RvMA, more than 150 µM; in the test on E. coli (setting [1]), 4 µM (≈ 1.47 µg/mL); in the test on E. coli (setting [2]), 150 µM (≈ 55.1 µg/mL).
`CC(CC1CCCCC1)NCc1ccccc1OCc1cn(C)nn1` (centres unmarked) [B300]: the MIC was more than 150 µM in the test with A. baumannii, more than 150 µM in the test on H37RvMA, 12 µM (≈ 4.11 µg/mL) in the test on E. coli (setting [1]) and more than 150 µM in the test on E. coli (setting [2]).

Source of the values: patent US11261201B2 (priority 2018, dated 2022).
